Literature values, collected in paper PMC3187562 (ACS medicinal chemistry letters, 2011).

Legend:
[1] = system: ΔF508-CFTR; settings: CF lung cell line expressing ΔF508-CFTR from a viral promoter
[2] = system: ΔF508-CFTR; settings: Phase 2a clinical study, CF patients
[3] = system: HDAC7

Compound: CC(/C=C/C(=O)NO)=C\[C@@H](C)C(=O)c1ccc(N(C)C)cc1 [compound 1, trichostatin A]
- increase of ΔF508-CFTR mRNA levels [1]: > 15 fold

Compound: Cc1ccc(NC(=O)C2(c3ccc4c(c3)OC(F)(F)O4)CC2)nc1-c1cccc(C(=O)O)c1 [VX-809]
- sweat chloride levels (key biomarker) [2]: reduced sweat chloride levels

Compound: C/C=C1\NC(=O)[C@H]2CSSCC/C=C/[C@H](CC(=O)N[C@H](C(C)C)C(=O)N2)OC(=O)[C@H](C(C)C)NC1=O [romidepsin]
- expression of HDAC7 in treated cells [3]: selectively down-regulated

Compound: O=C(CCCCCCC(=O)Nc1ccccc1)NO [compound 2, vorinostat]
- increase of ΔF508-CFTR mRNA levels [1]: > 15 fold
- increase of ΔF508-CFTR protein levels [1]: 25 fold
